From PMC10819243 (Pharmaceutics, 2024)

How the values were obtained:
[1] = system: HDF (normal fibroblast cell line); assay: MTT assay, HDF; type: cell-based, human; conditions: Homo sapiens, Fibroblast, MTT assay; HDF normal fibroblast cell line; (±s) standard deviation
[2] = system: MCF-7; assay: MTT assay, MCF-7; type: cell-based; conditions: for Selectivity Index MCF-7: IC50 for normal cell line (HDF)/IC50 for MCF-7; for IC50: Homo sapiens, MCF7, MTT assay, MCF-7 breast carcinoma, (±s) standard deviation
[3] = system: A-549; assay: MTT assay, A-549; type: cell-based; conditions: for IC50: Homo sapiens, A549, MTT assay, A-549 lung carcinoma, (±s) standard deviation; for Selectivity Index A-549: IC50 for normal cell line (HDF)/IC50 for A-549
[4] = system: KB; assay: MTT assay, KB; type: cell-based; conditions: for Selectivity Index KB: IC50 for normal cell line (HDF)/IC50 for KB; for IC50: Homo sapiens, MTT assay, KB nasopharynx carcinoma, (±s) standard deviation
[5] = system: HeLa; assay: MTT assay, HeLa; type: cell-based; conditions: for Selectivity Index HeLa: IC50 for normal cell line (HDF)/IC50 for HeLa; for IC50: Homo sapiens, MTT assay, HeLa cervix carcinoma, (±s) standard deviation
[6] = system: HeLa, KB, MCF-7, A-549 and HDF cell lines; assay: MTT assay, statements over several tested cell lines; type: cell-based; conditions: for times less active than mother OA (1): over the tested cell lines; for IC50: summary over the tested cell lines, read-out: IC50 values for the tested cell lines (range or summary)
[7] = ratio of IC50 values vs oleanolic acid (1)

Structure (SMILES) | IC50 [1] [µM] | Selectivity Index MCF-7 [2] | IC50 [3] [µM] | Selectivity Index A-549 [3] | Selectivity Index KB [4] | Selectivity Index HeLa [5] | IC50 [2] [µM] | fold as active as OA (1), MCF-7 [2, 7] | IC50 [4] [µM] | fold as active as OA (1), KB [4, 7] | IC50 [5] [µM] | times less active than mother OA (1) [6] | IC50 [6] [µM]
CC1(C)CC[C@]2(C(=O)O)CC[C@]3(C)C(=CC[C@@H]4[C@@]5(C)CC[C@H](O)C(C)(C)[C@@H]5CC[C@]43C)[C@@H]2C1 [Compound 1, oleanolic acid, reference compound] | 17.9 |  |  |  |  |  |  |  |  |  |  |  | 
COC(=O)C12CCC(C)(C)CC1C1=CCC3C4(C)CCC(=NO)C(C)(C)C4CCC3(C)C1(C)CC2 (stereo not shown) [Compound 2, methyl oleanonate oxime] | 21.1 | 1.38 | 13 | 1.62 | 1.70 | 1.60 |  |  |  |  |  |  | 
COC(=O)[C@]12CCC(C)(C)CC1C1=CCC3[C@@]4(C)CC/C(=N\OC(C)=O)C(C)(C)C4CC[C@@]3(C)[C@]1(C)CC2 (stereo partly shown) [Compound 5a, 3-Acetoxyiminoolean-12-en-28-oic acid methyl ester] | 29 | 2.76 | 10.6 | 2.74 | 2.55 | 2.62 | 10.5 | about 1.3 fold | 11.4 | about 1.3 fold | 11.1 |  | 
COC(=O)[C@]12CCC(C)(C)CC1C1=CCC3[C@@]4(C)CC/C(=N\OC(=O)CCl)C(C)(C)C4CC[C@@]3(C)[C@]1(C)CC2 (stereo partly shown) [Compound 5b, 3-Chloroacetoxyiminoolean-12-en-28-oic acid methyl ester] | 37 | 2.05 | 19.8 | 1.87 | 2.01 | 1.87 | 18 |  | 18.4 |  | 19.8 | 1.7–2.2 fold | 
CCC(=O)O/N=C1\CC[C@@]2(C)C(CC[C@]3(C)C2CC=C2C4CC(C)(C)CC[C@]4(C(=O)OC)CC[C@]23C)C1(C)C (stereo partly shown) [Compound 5c, 3-Propionoxyiminoolean-12-en-28-oic acid methyl ester] | 39.9 | 1.05 | 36.2 | 1.10 | 1.03 | 1.05 | 38.1 |  | 38.8 |  | 38.1 | 2.2–4.1 fold | 
COC(=O)[C@]12CCC(C)(C)CC1C1=CCC3[C@@]4(C)CC/C(=N\OC(=O)c5ccccc5)C(C)(C)C4CC[C@@]3(C)[C@]1(C)CC2 (stereo partly shown) [Compound 5d, 3-Benzoxyiminoolean-12-en-28-oic acid methyl ester] | 113 | 1.36 | 73.9 | 1.53 | 1.36 | 1.33 | 83.3 |  | 83.2 |  | 84.9 |  | 73.9 to 113
COC(=O)[C@]12CCC(C)(C)CC1C1=CCC3[C@@]4(C)CC/C(=N\OC(=O)c5cccc([N+](=O)[O-])c5)C(C)(C)C4CC[C@@]3(C)[C@]1(C)CC2 (stereo partly shown) [Compound 5e] | 38 | 1.74 | 21.1 | 1.80 | 1.59 | 1.88 | 21.8 |  | 23.9 |  | 20.1 |  | 20.1 to 38
COC(=O)[C@]12CCC(C)(C)CC1C1=CC(=O)C3[C@@]4(C)CC/C(=N\OC(=O)c5ccc([N+](=O)[O-])cc5)C(C)(C)C4CC[C@@]3(C)[C@]1(C)CC2 (stereo partly shown) [Compound 6f, 3-(4′-Nitro)benzoxyimino-11-oxoolean-12-en-28-oic acid methyl ester] | 37.2 | 1.43 | 28.1 | 1.32 | 1.41 | 1.31 | 26 |  | 26.3 |  | 28.3 |  | 
